Earlier results in patent US11266683B2, “Antimicrobial and cleansing composition consisting of a polymeric biguanide and EDTA” (priority 2016, dated 2022).
Read-outs that look alike come from different tables or passages of the source.

Compound	effect on fibroblasts (fibroblasts; at higher concentration)	effect on fibroblasts (fibroblasts; at lower concentration)	risk of the bacterium developing resistance (S. aureus)
[H]/N=C(\N/C(=N/[H])NCCCCCCNC(=N)NC(=N)Nc1ccc(Cl)cc1)Nc1ccc(Cl)cc1 [chlorhexidine]	causes necrosis	induces apoptosis	–
polyhexamethylene biguanide [PHMB]	–	–	very low
